# Test results taken from patent US20240108634A1, “COMPOSITIONS AND METHODS FOR INHIBITING YAP” (The United States Government as represented by the …, priority 2021, published 2024).
# Experiment: Brain and plasma concentrations by HPLC after IV administration
# Assay type: in vivo, C57/BL6 mice
# Conditions: single IV administration
# Protocol: FIGS. 9A-B show GEMM survival and brain/blood plasma concentrations following treatment with NSC682769. […] C57/BL6 mice were administered NSC682769 IV and mean brain and plasma concentrations were determined via HPLC analyses. (n=5).
# Protein and mRNA analyses, immunoprecipitation, in vitro bead-coupled inhibitor binding assays and HPLC analyses. Western blot analyses were performed as previously described (Artinian N, et al. (2015) J Biol Chem 290: 19387-19401). Briefly, cells were lysed in RIPA (lysis) buffer containing protease inhibitor cocktail and phosSTOP™ phosphatase inhibitor cocktail (Roche) and extracts resolved by SDS-PAGE. Proteins were transferred to PVDF membranes and incubated with the indicated antibodies. Antigen-antibody complexes were detected using appropriate horseradish peroxidase-conjugated secondary antibodies (GE Healthcare) and enhanced chemiluminescence (Amersham ECL Prime). […] For quantitative RT-PCR, extraction of RNA was performed using Trizol® (Life Technologies). Total RNA was then quantified and integrity assessed using an Agilent 2100 Bioanalyzer (Agilent Technology). […] SYBR® Green quantitative PCR (Millipore Sigma) was performed in triplicate in 96-well optical plates on an ABI Prism 7000 Sequence Detection System (Life Technologies) according to the manufacturer's instructions. […]
smiles,measurement,setting,value
COc1ccc(-c2cc(-c3ccccc3)nc3c2CC(=O)Nc2ccccc2-3)cc1OC [NSC682769],Cb/Cp ratios (brain/plasma),,consistent with BBB penetrance
same,Peak value in brain tissue,at 5 min post-administration,6.22 µg/g
